In one assay the target is T1, CFR1R receptor (Homo sapiens, UniProt P34998).
T1 construct: host or cells: CHO-K1 (clone 2)
T1 sequence (P34998 24-415): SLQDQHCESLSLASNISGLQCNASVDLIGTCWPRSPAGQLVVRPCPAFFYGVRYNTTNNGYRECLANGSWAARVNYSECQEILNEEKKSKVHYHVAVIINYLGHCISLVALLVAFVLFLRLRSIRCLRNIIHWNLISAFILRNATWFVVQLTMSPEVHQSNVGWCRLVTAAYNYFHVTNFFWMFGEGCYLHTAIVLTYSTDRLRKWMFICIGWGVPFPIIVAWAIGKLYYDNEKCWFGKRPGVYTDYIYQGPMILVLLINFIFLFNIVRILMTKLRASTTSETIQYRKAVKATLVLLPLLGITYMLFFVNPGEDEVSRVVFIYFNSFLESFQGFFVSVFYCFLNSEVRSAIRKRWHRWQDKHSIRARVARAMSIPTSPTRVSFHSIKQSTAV
The assay can be described thus: Activity at anti-target CFR1R receptor, cAMP assay in CRF1R-overexpression CHO-K1 cells. Type of assay: cell-based. The settings on record: 100% = Sauvagine at 100 nM; for EC50: cAMP. A digest of the protocol: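 Clone 2; cryopreserved stocks (10% DMSO); 4000 cells/well final; 100% activation = Sauvagine 100 nM; otherwise as TeloHAEC protocol.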
(cAMP levels reflect the balance of adenylyl cyclase and phosphodiesterase activity.)

The target in the next assay is T2, human CRF2a receptor (Homo sapiens, UniProt Q13324).
T2 construct: expressed in transfected cells; host or cells: TeloHEAC cells
T2 sequence (Q13324 1-411): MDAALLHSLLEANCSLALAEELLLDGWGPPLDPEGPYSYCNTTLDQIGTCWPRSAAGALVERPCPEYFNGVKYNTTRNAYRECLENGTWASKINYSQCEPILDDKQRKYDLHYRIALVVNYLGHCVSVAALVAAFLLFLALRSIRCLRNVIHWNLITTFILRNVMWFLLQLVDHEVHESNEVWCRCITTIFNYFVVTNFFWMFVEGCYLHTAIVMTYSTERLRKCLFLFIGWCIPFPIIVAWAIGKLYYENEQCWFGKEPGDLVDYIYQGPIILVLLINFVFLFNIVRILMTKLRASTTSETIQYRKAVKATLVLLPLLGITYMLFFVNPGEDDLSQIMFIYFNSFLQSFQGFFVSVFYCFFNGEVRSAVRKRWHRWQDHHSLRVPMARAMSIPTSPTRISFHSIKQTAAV
The assay can be described thus: Activity at human CRF2a receptor, cAMP functional assay in TeloHEAC cells. The class given is cell-based. Particulars: TeloHEAC cells stably expressing human CRF2a receptor, relative to urocortin 2 (100 nM = 100%). A digest of the protocol:
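TeloHEAC cells stably expressing human CRF2a (10000 cells/well) were treated with 16-point 1:2 compound dilutions in HBSS/20 mM HEPES with IBMX for 30 min at 37° C. cAMP was read by HTRF (665/620 nm ratio). EC50 was the concentration giving 50% activation, with 100 nM urocortin 2 set as 100%.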

*1 amine or outer side, *2 acyl side, *3 side chain or, on linkers, in order; H or OH if unused. Where a SMILES comes first, the peptide text is derived from it. Side-chain parts run from the residue outwards. [ ]: non-standard residue; d: D form. The star is where a group is joined. C16 diacid = O=C(O)CCCCCCCCCCCCCCC(=O)*; γGlu = O=C(O)[C@H](CCC(=O)[*:2])N[*:1]; Aib = CC(C)(N)C(=O)O Bounds are passed on as bounds.

As for `CC[C@H](C)[C@H](NC(C)=O)C(=O)N[C@H](C(=O)N[C@@H](CC(C)C)C(=O)N[C@@H](CO)C(=O)N[C@@H](CC(C)C)C(=O)N[C@@H](CC(=O)O)C(=O)N[C@H](C(=O)N1CCC[C@H]1C(=O)N[C@H](C(=O)N[C@@H](CCCCN)C(=O)N[C@@H](CC(C)C)C(=O)N[C@@H](CCCCNC(=O)CC[C@H](NC(=O)CCCCCCCCCCCCCCC(=O)O)C(=O)O)C(=O)N[C@@H](CCCCN)C(=O)N[C@H](C(=O)N[C@@H](CC(C)C)C(=O)N[C@@H](CC(C)C)C(=O)N[C@@H](CCC(=O)O)C(=O)N[C@@H](CCC(N)=O)C(=O)N[C@@H](CCC(=O)O)C(=O)N[C@@H](CCCCN)C(=O)N[C@@H](CCC(N)=O)C(=O)N[C@@H](CCCCN)C(=O)N[C@@H](CCCCN)C(=O)N[C@@H](CCC(N)=O)C(=O)N[C@@H](CCCNC(=N)N)C(=O)N[C@@H](CCC(=O)O)C(=O)N[C@@H](CCC(N)=O)C(=O)N[C@@H](C)C(=O)N[C@@H](CCC(=O)O)C(=O)N[C@H](C(=O)N[C@@H](CC(N)=O)C(=O)NC(C)(C)C(=O)N[C@@H](CCC(N)=O)C(=O)N[C@H](C(=O)N[C@@H](CC(C)C)C(=O)N[C@@H](C)C(=O)N[C@@H](CCC(N)=O)C(=O)N[C@H](C(N)=O)C(C)C)[C@@H](C)CC)[C@@H](C)O)[C@@H](C)CC)[C@@H](C)CC)C(C)C)C(C)C` [compound 39] (Ac-IVLSLDVPIKLK([γGlu-C16 diacid])KILLEQEKQKKQREQAETN[Aib]QILAQV-NH2), on CFR1R receptor, the “Emax (% I)” value came to 2 % I and the EC50 was over 250 nM. The molecule further came in with a 50% effective concentration (EC50) on human CRF2a receptor of 0.53 nM.
Take `CC[C@H](C)[C@H](NC(C)=O)C(=O)N[C@H](C(=O)N[C@@H](CC(C)C)C(=O)N[C@@H](CO)C(=O)N[C@@H](CC(C)C)C(=O)N[C@@H](CC(=O)O)C(=O)N[C@@H](C(=O)N1CCC[C@H]1C(=O)N[C@H](C(=O)N[C@@H](CCCCN)C(=O)N[C@@H](CC(C)C)C(=O)N[C@@H](CCCCNC(=O)CC[C@H](NC(=O)CC[C@H](NC(=O)CCCCCCCCCCCCCCC(=O)O)C(=O)O)C(=O)O)C(=O)N[C@@H](CCCCN)C(=O)N[C@H](C(=O)N[C@@H](CC(C)C)C(=O)N[C@@H](CC(C)C)C(=O)N[C@@H](CCC(=O)O)C(=O)N[C@@H](CCC(N)=O)C(=O)N[C@@H](CCC(=O)O)C(=O)N[C@@H](CCCCN)C(=O)N[C@@H](CCC(N)=O)C(=O)N[C@@H](CCCCN)C(=O)N[C@@H](CCCCN)C(=O)N[C@@H](CCC(N)=O)C(=O)N[C@@H](CCCNC(=N)N)C(=O)N[C@@H](CCC(=O)O)C(=O)N[C@@H](CCC(N)=O)C(=O)N[C@@H](C)C(=O)N[C@@H](CCC(=O)O)C(=O)N[C@H](C(=O)N[C@@H](CC(N)=O)C(=O)NC(C)(C)C(=O)N[C@@H](CCC(N)=O)C(=O)N[C@H](C(=O)N[C@@H](CC(C)C)C(=O)N[C@@H](C)C(=O)N[C@@H](CCC(N)=O)C(=O)N[C@H](C(N)=O)C(C)C)[C@@H](C)CC)[C@@H](C)O)[C@@H](C)CC)[C@@H](C)CC)C(C)C)C(C)C` [compound 41] (Ac-IVLSLD[dV]PIKLK([γGlu-γGlu-C16 diacid])KILLEQEKQKKQREQAETN[Aib]QILAQV-NH2): on CFR1R receptor, the “Emax (% I)” value was 7 % I and the EC50 was over 250 nM. In addition, a half-maximal response on human CRF2a receptor (EC50) required 1.85 nM.

As usually defined, the EC50 is the midpoint of the concentration-response curve. Low readings indicate higher potency in that assay, high ones lower potency in that assay.

The record behind these values is patent US20260001928A1 (CORTERIA PHARMACEUTICALS, priority 2022, published 2026).
